{"source": "paper PMC6385376", "about": "“Coupling of a viral K^+-channel with a glutamate-binding-domain highlights the modular design of ionotropic glutamate-receptors” (Communications Biology, 2019)", "type_in_all_cases": "cell-based", "key": {"[1]": {"system": "GluATCVshort (GluA1/KcvATCV-1 chimera)", "assay": "Two-electrode voltage clamp of GluATCVshort expressing Xenopus oocytes", "description": "(§1) The GluATCV constructs were generated by replacing the nucleotide sequence encoding amino acids 538–629 (GluATCVlong), 634 (GluATCV short) and 642 (GluATCV) of the mature GluA1 by the KcvATCV-1 sequence with the use of XhoI and NheI. The GluATCV^ΔNTD and GluATCV^ΔM4 constructs were generated by excising the nucleotide sequence encoding amino acids 19–394 and upstream of 784 of the mature GluA1 by deletion PCR, respectively. All constructs were confirmed by DNA sequencing (Seqlab, Göttingen, Germany).\n(§2) cRNAs were synthesized by using the AmpliCap-Max™ T7 High Yield Message Maker Kit of Cellscript (Madison, Wi, USA) with the plasmid linearized by AatII. X. laevis oocytes were used for two electrode voltage-clamp (TEVC) electrophysiology as previously described. […] The TEVC recordings were performed at room temperature with an Axoclamp 900A amplifier, digitized with a Digidata 1550A at 5 kHz after low-pass filtering at 200 Hz and recorded with Clampex 10.7 (Molecular Devices, San Jose, USA). […]\n(§3) Permeability ratio was calculated by the shift of the reversal potential with the Goldman–Hodgkin–Katz equation under bi-ionic conditions PNa^+/PK^+=expΔErev*F/R*T [27]. The amplitude was measured with KielPatch and also the open probability in bilayer measurements was analyzed by the build in Hinkley-jump-detector of KielPatch (http://www.zbm.uni-kiel.de/aghansen/software.html). […]"}, "[2]": {"system": "GluATCV (GluA1/KcvATCV-1 chimera)", "assay": "Two-electrode voltage clamp of GluATCV expressing Xenopus oocytes", "description": "as §1\n(§4) cRNAs were synthesized by using the AmpliCap-Max™ T7 High Yield Message Maker Kit of Cellscript (Madison, Wi, USA) with the plasmid linearized by AatII. X. laevis oocytes were used for two electrode voltage-clamp (TEVC) electrophysiology as previously described. Oozytes were surgically obtained from female X. laevis after anesthesia with 0.1% Tricaine in water under the approval of the Technical University of Darmstadt (Agreement V54-19c20/15 DA8/Anz. 20). After the harvest, oocytes were incubated for 1 h in 0.8 mg collagenase in frog ringer [96 mM NaCl, 2 mM KCl, 1 mM CaCl2,1 mM MgCl2, and 5 mM HEPES (pH 7.4 with NaOH)][53]. After the treatment and a washing step with Ca^2+ free ringer [96 mM NaCl, 2 mM KCl,1 mM MgCl2, and 5 mM HEPES (pH 7.4 with NaOH)] oocytes of stage V and VI were selected and defolliculated by pipetting with a burned glass-Pasteur-pipette. For electrophysiological analysis, oocytes were injected with 50 ng in a volume of 50 nl of the respective construct. After injection the oocytes were incubated in ND-96 solution (96 mM NaCl, 2 mM KCl, 1 mM CaCl2, 1 mM MgCl2, 5 mM HEPES, pH 7.4 with NaOH) at 18 °C for 3–5 days until the electrophysiological measurements. The TEVC recordings were performed at room temperature with an Axoclamp 900A amplifier, digitized with a Digidata 1550A at 5 kHz after low-pass filtering at 200 Hz and recorded with Clampex 10.7 (Molecular Devices, San Jose, USA). For recording the microelectrodes were filled with 3 M KCl (resistance 0.8–2.8 MΩ in external solution) and the oocytes were clamped at −70 mV. The external solution was a modified ringer solution containing 100 mM KCl; 10 mM HEPES; 1.8 mM CaCl2; 1 mM MgCl2 (pH 7.4 with KOH) alone or containing agonist.\n(§5) Permeability ratio was calculated by the shift of the reversal potential with the Goldman–Hodgkin–Katz equation under bi-ionic conditions PNa^+/PK^+=expΔErev*F/R*T [27]. The amplitude was measured with KielPatch and also the open probability in bilayer measurements was analyzed by the build in Hinkley-jump-detector of KielPatch (http://www.zbm.uni-kiel.de/aghansen/software.html). Values given represent means ± SEM. Statistical significance was determined at the p < 0.05 (*), p < 0.01 (**), and p < 0.001 (***) levels using a Student’s two-tailed, unpaired two-side t-test or ANOVA (in case of more groups) and a Tukey post-hoc analysis (Prism 7.00). All data are shown as boxplots with a center line representing the median; box limits are the upper and lower quartiles; whiskers representing min and max."}, "[3]": {"biological_target": "GluATCV* (GluATCV G614S/F615L) (Rattus norvegicus, UniProt P19490, L497Y)", "sequence (A7K9J5 entry or part of it G77S/F78L)": "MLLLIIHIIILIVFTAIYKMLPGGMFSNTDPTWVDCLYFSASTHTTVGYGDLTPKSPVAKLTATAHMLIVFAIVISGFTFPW", "sequence (P19490 other isoform, or with tags, fused parts or gaps L497Y)": "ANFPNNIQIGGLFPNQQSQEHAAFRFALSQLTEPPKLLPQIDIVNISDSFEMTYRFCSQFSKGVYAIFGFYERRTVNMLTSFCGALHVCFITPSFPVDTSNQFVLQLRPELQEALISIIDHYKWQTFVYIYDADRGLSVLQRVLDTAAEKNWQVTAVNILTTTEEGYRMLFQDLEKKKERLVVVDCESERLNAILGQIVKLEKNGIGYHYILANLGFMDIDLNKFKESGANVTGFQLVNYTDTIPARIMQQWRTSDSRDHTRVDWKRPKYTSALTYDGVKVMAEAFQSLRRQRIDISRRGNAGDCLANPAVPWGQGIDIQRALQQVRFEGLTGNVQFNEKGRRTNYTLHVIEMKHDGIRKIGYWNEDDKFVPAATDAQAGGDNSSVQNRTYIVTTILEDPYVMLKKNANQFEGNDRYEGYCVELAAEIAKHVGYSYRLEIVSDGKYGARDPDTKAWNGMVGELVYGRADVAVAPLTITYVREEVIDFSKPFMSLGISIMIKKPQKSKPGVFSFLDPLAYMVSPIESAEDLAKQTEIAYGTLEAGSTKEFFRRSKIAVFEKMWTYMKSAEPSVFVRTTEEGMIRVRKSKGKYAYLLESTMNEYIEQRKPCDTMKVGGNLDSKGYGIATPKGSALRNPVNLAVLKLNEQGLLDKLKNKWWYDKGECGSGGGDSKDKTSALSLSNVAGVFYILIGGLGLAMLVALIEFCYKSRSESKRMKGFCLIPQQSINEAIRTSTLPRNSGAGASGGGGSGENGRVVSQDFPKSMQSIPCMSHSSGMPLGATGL", "conditions": "GluATCV* oocytes; for Glutamate-induced fraction of the Ba^2+-block (IGlu/IBa): fraction of total Ba^2+-sensitive current", "description": "as §1, §4, §5"}, "[4]": {"biological_target": "T1, GluA1 glutamate receptor carrying the mutation L479Y (Rattus norvegicus, UniProt P19490, L497Y)", "T1 construct": "expressed in transfected cells; host or cells: Xenopus laevis oocytes (cRNA injection)", "T1 sequence (P19490 19-907 L497Y)": "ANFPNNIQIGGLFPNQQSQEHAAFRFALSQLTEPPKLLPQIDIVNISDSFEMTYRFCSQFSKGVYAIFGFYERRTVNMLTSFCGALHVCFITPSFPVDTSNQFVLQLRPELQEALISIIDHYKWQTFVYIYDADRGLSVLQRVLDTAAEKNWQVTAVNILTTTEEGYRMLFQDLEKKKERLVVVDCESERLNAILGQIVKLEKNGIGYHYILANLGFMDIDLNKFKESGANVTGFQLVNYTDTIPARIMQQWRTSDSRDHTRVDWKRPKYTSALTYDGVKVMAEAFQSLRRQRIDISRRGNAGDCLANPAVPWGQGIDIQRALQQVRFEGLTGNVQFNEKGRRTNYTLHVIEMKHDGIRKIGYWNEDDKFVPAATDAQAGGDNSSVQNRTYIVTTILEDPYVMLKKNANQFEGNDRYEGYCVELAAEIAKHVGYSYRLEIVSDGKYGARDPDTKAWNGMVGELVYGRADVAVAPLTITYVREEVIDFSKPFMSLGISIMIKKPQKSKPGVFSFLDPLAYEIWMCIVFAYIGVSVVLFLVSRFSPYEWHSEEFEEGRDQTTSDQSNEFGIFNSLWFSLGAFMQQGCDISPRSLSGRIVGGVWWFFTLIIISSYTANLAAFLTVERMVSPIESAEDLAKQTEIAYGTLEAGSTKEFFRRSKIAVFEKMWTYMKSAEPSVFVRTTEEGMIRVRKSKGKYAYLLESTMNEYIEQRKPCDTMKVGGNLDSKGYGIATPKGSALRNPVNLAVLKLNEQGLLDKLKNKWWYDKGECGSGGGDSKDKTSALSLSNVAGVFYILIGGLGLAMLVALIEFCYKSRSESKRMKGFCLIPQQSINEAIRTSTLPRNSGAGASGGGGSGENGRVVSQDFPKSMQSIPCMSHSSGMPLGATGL", "assay": "Two-electrode voltage clamp of GluA1 expressing Xenopus oocytes", "conditions": "CNQX IC50, GluA1 (L479Y) oocytes, in the presence of 5 µM glutamate (EC50), n = 5", "description": "as §1, §2, §3"}, "[5]": {"system": "GluATCVlong (GluA1/KcvATCV-1 chimera)", "assay": "Two-electrode voltage clamp of GluATCVlong expressing Xenopus oocytes", "description": "as §1\nas §2, with “described. Oozytes were surgically obtained from female X. laevis after anesthesia with 0.1% Tricaine in water under the approval of the Technical University of Darmstadt (Agreement V54-19c20/15 DA8/Anz. 20). After the harvest, oocytes were incubated for 1 h in 0.8 mg collagenase in frog ringer [96 mM NaCl, 2 mM KCl, 1 mM CaCl2,1 mM MgCl2, and 5 mM HEPES (pH 7.4 with NaOH)][53].” for “described.”"}, "[6]": {"biological_target": "GluATCV*^ΔNTD (Rattus norvegicus, UniProt P19490, L497Y)", "sequence (P19490 with tags, fused parts or gaps L497Y)": "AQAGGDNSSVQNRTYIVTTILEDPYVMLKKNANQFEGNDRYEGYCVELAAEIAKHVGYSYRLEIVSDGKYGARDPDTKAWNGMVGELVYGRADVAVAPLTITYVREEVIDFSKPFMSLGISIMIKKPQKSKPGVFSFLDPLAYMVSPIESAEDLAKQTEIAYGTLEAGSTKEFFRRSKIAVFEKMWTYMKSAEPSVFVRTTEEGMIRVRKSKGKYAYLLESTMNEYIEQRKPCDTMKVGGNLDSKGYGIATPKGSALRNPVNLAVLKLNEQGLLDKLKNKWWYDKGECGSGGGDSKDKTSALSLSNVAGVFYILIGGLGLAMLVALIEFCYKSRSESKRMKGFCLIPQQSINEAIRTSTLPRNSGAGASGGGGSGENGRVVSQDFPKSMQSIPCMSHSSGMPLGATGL", "sequence (A7K9J5 1-82 partner)": "as the sequence (A7K9J5 entry or part of it G77S/F78L) above", "conditions": "GluATCV*^ΔNTD oocytes, saturating glutamate concentrations, n = 5", "description": "as §1, §4, §5"}}, "note": "Several values for one entry are separate records, joined by “and”; a condition that tells them apart may be missing. Equal values may be shown once. Read-outs that look alike come from different tables or passages of the source.", "data": [{"smiles": "[Ba+2]", "note": "[Ba^2+]", "values": [{"measurement": "Ba^2+-block of the leakage current", "setting": "[1]; −70 mV, absence of agonist, 500 µM Ba^2+, n = 5", "result": "93.5 ± 1.6", "unit": "%"}, {"measurement": "Maximal Ba^2+-sensitive currents", "setting": "[2]", "result": "1.0 ± 0.3", "unit": "µA"}, {"measurement": "Block of initial leakage and Glu-evoked currents by Ba^2+", "setting": "[2]; 500 µM Ba^2+", "result": "could be blocked"}, {"measurement": "Ba^2+-block of the leakage current", "setting": "[2]; −70 mV, n = 5", "result": "84.4 ± 2.3", "unit": "%"}, {"measurement": "Block of glutamate-induced and leakage currents by Ba^2+", "setting": "[3]", "result": "could be efficiently blocked"}, {"measurement": "Maximal Ba^2+-sensitive currents", "setting": "[3]", "result": "0.8 ± 0.2", "unit": "µA"}, {"measurement": "Ba^2+-block of the leakage current", "setting": "[3]; −70 mV, n = 5", "result": "32.9 ± 10.8*** %"}]}, {"smiles": "N#Cc1cc2nc(O)c(O)nc2cc1[N+](=O)[O-]", "note": "[CNQX, 6-cyano-7-nitroquinoxaline-2,3-dione]", "values": [{"measurement": "IC50", "setting": "[4]", "result": "2200 nM and 2000 nM"}]}, {"smiles": "N[C@@H](CCC(=O)O)C(=O)O", "note": "[glutamate, L-glutamate]", "values": [{"measurement": "Currents in response to glutamate", "setting": "[1]; 1 mM glutamate", "result": "could not elicit any currents"}, {"measurement": "Glutamate-induced fraction of the Ba^2+-block (IGlu/IBa)", "setting": "[2]; fraction of total Ba^2+-sensitive current, n = 5", "result": "36.4 ± 4.6", "unit": "%"}, {"measurement": "Glu-elicited current amplitude", "setting": "[2]; −70 mV, n = 10", "result": "0.4 ± 0.3", "unit": "µA"}, {"measurement": "Response to Glu application", "setting": "[5]", "result": "remained insensitive"}, {"measurement": "Glutamate-induced fraction of the Ba^2+-block (IGlu/IBa)", "setting": "[3]; n = 5", "result": "68.2 ± 5.2** %"}, {"measurement": "Glutamate-induced fraction of the Ba^2+-block (IGlu/IBa)", "setting": "[3]; n = 5, listed as Glu", "result": "68.2 ± 5.2", "unit": "%"}, {"measurement": "Glu-inducible current amplitude (IGlu)", "setting": "[3]; n = 5", "result": "0.7 ± 0.2", "unit": "µA"}, {"measurement": "Imax", "setting": "[6]", "result": "1.0 ± 0.26", "unit": "µA"}]}]}
